The source of these data is patent US20170081324A1 (priority 2015, published 2017).

Each structure is given as a SMILES string. Read-outs that look alike come from different tables or passages of the source.

Assay [1] concerns the target whole RNP complex (viral RNPs) of IAV strain A/PR/8/34 (Influenza A virus, UniProt P03428). In words: biochemical.
Assay [2] relates to influenza A virus (IAV) A/Aichi/2/68 (H3N2) on MDCK cells. In words: microbe, parasite or virus in culture. The format is cell-based, influenza A virus A/Aichi/2/68 (H3N2). As to conditions: 48 h.

Chain of whole RNP complex (viral RNPs) of IAV strain A/PR/8/34 (P03428 whole entry, looked up, one chain of several): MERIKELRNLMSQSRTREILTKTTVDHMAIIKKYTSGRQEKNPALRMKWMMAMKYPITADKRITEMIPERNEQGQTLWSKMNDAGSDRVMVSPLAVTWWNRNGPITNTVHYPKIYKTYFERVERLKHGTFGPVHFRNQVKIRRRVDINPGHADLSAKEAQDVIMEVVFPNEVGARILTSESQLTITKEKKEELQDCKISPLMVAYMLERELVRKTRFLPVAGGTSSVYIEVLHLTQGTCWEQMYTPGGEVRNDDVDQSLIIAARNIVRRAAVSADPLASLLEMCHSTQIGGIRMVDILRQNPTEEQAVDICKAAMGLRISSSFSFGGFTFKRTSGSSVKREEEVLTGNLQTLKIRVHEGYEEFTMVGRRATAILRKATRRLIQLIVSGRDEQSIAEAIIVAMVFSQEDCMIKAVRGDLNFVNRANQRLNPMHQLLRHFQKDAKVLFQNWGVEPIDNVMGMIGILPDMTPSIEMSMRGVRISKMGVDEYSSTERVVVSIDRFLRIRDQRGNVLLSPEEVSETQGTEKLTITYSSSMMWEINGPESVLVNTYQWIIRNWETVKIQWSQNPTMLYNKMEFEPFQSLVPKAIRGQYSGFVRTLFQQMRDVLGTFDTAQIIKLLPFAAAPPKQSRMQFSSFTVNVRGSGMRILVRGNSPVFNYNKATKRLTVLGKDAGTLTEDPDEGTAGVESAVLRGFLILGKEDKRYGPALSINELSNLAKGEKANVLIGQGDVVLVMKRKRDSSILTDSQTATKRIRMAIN

For the compound `CNc1nc(-c2ccc3n[nH]c(=O)n3c2)ncc1F`, the IC50 in assay [1] was more than 33.3 µM; in assay [2] (read-out: CPE), more than 50 µM. On to `O=C(O)CCCCCNc1nc(-c2ccc3n[nH]c(=O)n3c2)ncc1F`, for which the results for the IC50 in assay [1] and in assay [2] (read-out: CPE IC50) were 149 µM and more than 100 µM, respectively. For `O=C(N[C@@H]1CCC[C@H](Nc2nc(-c3cccc4n[nH]c(=O)n34)ncc2F)C1)N1CCCC1` [reference compound], in assay [2] (read-out: CPE), the IC50 is more than 50 µM.

Take `CC(C)[C@H](Nc1nc(-c2ccc3n[nH]c(=O)n3c2)ncc1F)C(=O)O`: the IC50 in assay [1] was more than 33.3 µM; in assay [2] (read-out: CPE), more than 50 µM.

For `COC(=O)CC(Nc1nc(-c2ccc3n[nH]c(=O)n3c2)ncc1F)C1CC1` (centres unmarked), in assay [2] (read-out: CPE), the IC50 was more than 50 µM. Same read-out and setting: for `O=c1[nH]nc2ccc(-c3ncc(F)c(NC4CCCCC4)n3)cn12` the value was more than 50 µM. On to `CC(C)C(C)Nc1nc(-c2ccc3n[nH]c(=O)n3c2)ncc1F` (centres unmarked), for which the IC50 in assay [1] is 73.2 µM; in assay [2] (read-out: CPE), more than 50 µM. Turning to `COC(=O)CCCCCNc1nc(-c2ccc3n[nH]c(=O)n3c2)ncc1F`, the IC50 in assay [1] was more than 33.3 µM; in assay [2] (read-out: CPE IC50), 39.3 µM.

For `COC(=O)C[C@@H](Nc1nc(-c2ccc3n[nH]c(=O)n3c2)ncc1F)C(C)C`, the IC50 in assay [2] (read-out: CPE) was more than 50 µM. Consider `COC(=O)[C@@H](Nc1nc(-c2ccc3n[nH]c(=O)n3c2)ncc1F)C(C)C`, for which the IC50 in assay [2] (read-out: CPE IC50) stood at 38.5 µM. `O=C(O)[C@@H]1CCC[C@H](Nc2nc(-c3ccc4n[nH]c(=O)n4c3)ncc2F)C1`: the IC50 in assay [1] was 14.3 µM; in assay [2] (read-out: CPE), more than 50 µM.

For `O=C(O)CC(Nc1nc(-c2ccc3n[nH]c(=O)n3c2)ncc1F)C1CC1` (centres unmarked), the IC50 in assay [1] is more than 25 µM; in assay [2] (read-out: CPE) it was more than 50 µM. Take `COC(=O)[C@@H]1CCC[C@H](Nc2nc(-c3ccc4n[nH]c(=O)n4c3)ncc2F)C1`: the IC50 in assay [1] was more than 33.3 µM; in assay [2] (read-out: CPE), more than 50 µM. Turning to `CC(C)[C@@H](CC(=O)O)Nc1nc(-c2ccc3n[nH]c(=O)n3c2)ncc1F`, the IC50 is more than 33.3 µM in assay [1] and more than 50 µM in assay [2] (read-out: CPE). `O=c1[nH]nc2ccc(-c3ncc(F)c(NCCO)n3)cn12`: in assay [2] (read-out: CPE), the IC50 is more than 50 µM. With `CC(C)Nc1nc(-c2ccc3n[nH]c(=O)n3c2)ncc1F`, the IC50 in assay [1] is 44.9 µM; in assay [2] (read-out: CPE), more than 50 µM.

In the case of `O=C(N[C@@H]1CCC[C@H](Nc2nc(-c3ccc4n[nH]c(=O)n4c3)ncc2F)C1)N1CCCC1`, in assay [2] (read-out: CPE IC50), the IC50 amounted to 9.1 µM. As to `O=c1[nH]nc2ccc(-c3ncc(F)c(NCC4CC4)n3)cn12`, the IC50 in assay [1] was more than 33.3 µM; in assay [2] (read-out: CPE) it was more than 50 µM.
